Values quoted from earlier work in US6334999B1, “Liposomal aerosols for delivery of chemotherapeutic retinoids to the lungs” (Research Development Foundation, priority 1999, dated 2002).

Settings: mouse, in vivo

In the case of `CC1=C(/C=C/C(C)=C/C=C/C(C)=C/C(=O)O)C(C)(C)CCC1` [free ATRA, all-trans-retinoic acid], the “dose exerting toxic effects” value is listed as 25-30 mg/kg of body weight.
